Laboratory results taken from patent publication US20150018376A1, “PYRIMIDIN-4-YL)OXY)-1H-INDOLE-1-CARBOXAMIDE DERIVATIVES AND USE THEREOF” (NOVARTIS AG, priority 2013, published 2015).
pIC50: −log10 of the molar value.

What was measured:
KDR (GST-KDR(807-1356)) = biological target: T1, KDR (GST-KDR(807-1356)) (Homo sapiens, UniProt P35968); assay: KDR protein kinase activity, LanthaScreen TR-FRET; assay type: biochemical; settings: 2 μM ATP, 1 hour incubation
T1 construct: GST-KDR(807-1356), internally produced recombinant protein; GST (N); made in house
T1 sequence (P35968 807-1356): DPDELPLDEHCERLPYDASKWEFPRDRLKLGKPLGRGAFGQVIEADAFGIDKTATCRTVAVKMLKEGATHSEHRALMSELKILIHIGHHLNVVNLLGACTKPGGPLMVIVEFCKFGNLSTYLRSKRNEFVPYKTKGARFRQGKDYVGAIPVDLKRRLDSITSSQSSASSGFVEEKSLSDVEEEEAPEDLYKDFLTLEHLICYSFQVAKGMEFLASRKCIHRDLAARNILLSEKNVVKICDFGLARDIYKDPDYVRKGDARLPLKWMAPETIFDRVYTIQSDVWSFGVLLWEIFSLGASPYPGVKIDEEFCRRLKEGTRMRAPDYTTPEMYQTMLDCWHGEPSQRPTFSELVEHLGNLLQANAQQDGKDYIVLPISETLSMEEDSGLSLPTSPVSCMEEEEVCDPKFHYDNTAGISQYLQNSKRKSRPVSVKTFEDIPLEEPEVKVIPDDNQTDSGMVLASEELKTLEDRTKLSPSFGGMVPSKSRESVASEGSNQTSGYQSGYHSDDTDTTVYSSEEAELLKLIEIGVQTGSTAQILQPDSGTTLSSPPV
Experimental: A generic assay set-up has been run at room temperature on a liquid handling robot. To the assay plates containing 50 nL compound or control solutions, 4.5 μL of ATP mix (20 mM Tris-HCl pH7.4, 1 mM DTT, 0.025% Tween20, 0.01 mM Na3VO4, 10 mM MgCl2, 1 mM MnCl2, and 4 μM ATP) were added per well. Subsequently, 4.5 μL of enzyme-substrate mix (20 mM Tris-HCl pH7.4, 1 mM DTT, 0.025% Tween20, 0.01 mM Na3VO4, 10 mM MgCl2, 1 mM MnCl2, 0.5% BSA, 100 nM fluorescein labeled poly(EAY), and 0.76 nM KDR (GST-KDR(807-1356), internally produced recombinant protein) were added.
The final reaction volume is 9.05 μL with final reagent concentrations of 20 mM Tris-HCl pH7.4, 1 mM DTT, 0.025% Tween20, 0.01 mM Na3VO4, 10 mM MgCl2, 1 mM MnCl2, including a generic concentration of 2 μM ATP, 50 nM of substrate fluorescein labeled poly(EAY), and 0.38 nM enzyme.
After 1 hour of incubation the kinase reactions have been stopped by the addition of 4.5 μL of stop solution (20 mM Tris-HCl pH7.4, 1 mM DTT, 0.025% Tween20, 0.01 mM Na3VO4, 50 mM EDTA) immediately followed by 4.5 μL of antibody solution (20 mM Tris-HCl pH7.4, 1 mM DTT, 0.025% Tween20, 0.01 mM Na3VO4, 1.72 μg/ml Tb-PY20).
After an incubation time of 45 min in the dark, the plates were transferred into a fluorescence reader and counted in time resolved fluorescence mode (settings according to the reagent supplier's recommendation). The effect of compound on the enzymatic activity was obtained from end point measurement.

[1] = Stability of crystalline form; assay type: physicochemical; settings: HCl salt
Excerpt: Crystalline form B of the HCl salt of N-(1-methyl-5-(trifluoromethyl)-1H-pyrazol-3-yl)-5-((6-((methylamino)methyl)pyrimidin-4-yl)oxy)-1H-indole-1-carboxamide was obtained using the same procedure as in Example 5 above.

human hepatocytes = assay: Hepatocyte viability during incubation (ViaCount assay); assay type: cell-based; settings: 10 μmol/L, percent viable cells relative to total cells
Experimental: (§1) After thawing the cryopreserved hepatocytes, the viable cells were enriched by centrifugation in HepatoZYME cell culture medium (Gibco Invitrogen). For this purpose, the cells were added to 45 mL of a 37° C. warm HepatoZYME, and centrifuged at room temperature, at 50 g for 5 min. The supernatant containing dead cells was discarded and the cells in the pellet were re-suspended in HepatoZYME.
(§2) The viability of the re-suspended hepatocytes was determined by a Guava EasyCyte™ Mini system using the ViaCount® assay as described by the supplier (Guava Technologies, Hayward, Calif., USA). After cell counting, the cell concentration was adjusted to approx. 1·10^6 viable cells/mL by adding HepatoZYME. Subsequently, the incubations were started by adding [^14C] N-(1-methyl-5-(trifluoromethyl)-1H-pyrazol-3-yl)-5-(6-((methylamino)methyl)pyrimidin-4-yloxy)-1H-indole-1-carboxamide and non-labeled N-(1-methyl-5-(trifluoromethyl)-1H-pyrazol-3-yl)-5-(6-((methylamino)methyl)pyrimidin-4-yloxy)-1H-indole-1-carboxamide as a solution in DMSO. The final concentration of DMSO in the incubations was 0.1% (v/v).
(§3) To check the chemical stability of [^14C] N-(1-methyl-5-(trifluoromethyl)-1H-pyrazol-3-yl)-5-(6-((methylamino)methyl)pyrimidin-4-yloxy)-1H-indole-1-carboxamide under the incubation conditions, the compound was incubated at a concentration of 10 μmol/L in HepatoZYME without hepatocytes. A second series of control incubations was performed with hepatocytes of all species in the absence of the test compound to investigate the effect of the latter on the viability. These experiments were performed in a 12×6 mL MultiWell™ plate (Art. 393503, Beckton Dickinson).
(§4) The incubations were performed at 37° C. under a humidified atmosphere of 95% relative humidity and 5% CO2 in a Heraeus incubator/cytoperm (Kendro Laboratory Products AG, Zürich, Switzerland). During the incubations, the plates and flasks were shaken at 300 strokes per minute. The viability of the hepatocytes was determined after 6 h (end of incubation).

monkey hepatocytes = assay: as above; assay type: cell-based; settings: 10 μmol/L, percent viable cells relative to total cells
Experimental: as §1, §2, §3, §4

rabbit hepatocytes = assay: as above; assay type: cell-based; settings: 10 μmol/L, percent viable cells relative to total cells
Experimental: as §1, §2, §3, §4

rat hepatocytes = assay: as above; assay type: cell-based; settings: 10 μmol/L, percent viable cells relative to total cells
Experimental: as §1, §2, §3, §4

[2] = tested on: hepatocytes from rat, rabbit, monkey, and human; assay: Hepatocyte viability during incubation, all species summarised; assay type: cell-based; settings: 10 μmol/L, range over four species; initially 70-93%; controls without compound 4-21%
Experimental: as §1
as §2, with “(v/v). […]” for “(v/v).”
The incubations were performed at 37° C. under a humidified atmosphere of 95% relative humidity and 5% CO2 in a Heraeus incubator/cytoperm (Kendro Laboratory Products AG, Zürich, Switzerland). […] The viability of the hepatocytes was determined after 6 h (end of incubation).

[3] = Control incubations in the absence of hepatocytes or liver microsomes (chemical stability); assay type: in vitro ADME; settings: 10 μmol/L in HepatoZYME without hepatocytes (6 h) or buffer without microsomes (60 min), 37° C.
Experimental: as §3
Microsomal incubations for metabolite profiles were performed at 10 μmol/L of [^14C] N-(1-methyl-5-(trifluoromethyl)-1H-pyrazol-3-yl)-5-(6-((methylamino)methyl)pyrimidin-4-yloxy)-1H-indole-1-carboxamide (approx. 50% radiolabeled) with one time point investigated (60 min). Incubations were performed at 37° C. in 0.1 mol/L sodium phosphate buffer pH 7.4. The final concentrations in the incubation cocktail were: 4 mmol/L UDPGA (Sigma-Aldrich), 1 mmol/L β-NADPH (Sigma-Aldrich), 5 mmol/L MgCl2, and 60 μg alamethicin (Sigma-Aldrich) per mg microsomal protein. The system was left to incubate for 10 min before adding the test compound to allow the pore formation with the alamethicin. The metabolic reaction was started by the addition of [^14C] […]

Cn1nc(NC(=O)n2ccc3cc(Oc4cc(/C=[N+](/C)[O-])ncn4)ccc32)cc1C(F)(F)F [Example 1, (Z)-N-((6-((1-((1-methyl-5-(trifluoromethyl)-1H-pyrazol-3-yl)carbamoyl)-1H-indol-5-yl)oxy)pyrimidin-4-yl)methylene)methanamine oxide]
pIC50 (KDR (GST-KDR(807-1356))): > 9.00

Cn1nc(NC(=O)n2ccc3cc(Oc4cc(C(N)=O)ncn4)ccc32)cc1C(F)(F)F [Example 2, 5-((6-Carbamoylpyrimidin-4-yl)oxy)-N-(1-methyl-5-(trifluoromethyl)-1H-pyrazol-3-yl)-1H-indole-1-carboxamide]
pIC50 (KDR (GST-KDR(807-1356))): 7.70

Cn1nc(NC(=O)n2ccc3cc(Oc4cc(CN)ncn4)ccc32)cc1C(F)(F)F [Example 3, 5-(6-(aminomethyl)pyrimidin-4-yloxy)-N-(1-methyl-5-(trifluoromethyl)-1H-pyrazol-3-yl)-1H-indole-1-carboxamide]
pIC50 (KDR (GST-KDR(807-1356))): > 9.00

CNCc1cc(Oc2ccc3c(ccn3C(=O)Nc3cc(C(F)(F)F)n(C)n3)c2)ncn1 [Form B, N-(1-methyl-5-(trifluoromethyl)-1H-pyrazol-3-yl)-5-((6-((methylamino)methyl)pyrimidin-4-yl)oxy)-1H-indole-1-carboxamide]
stability of the crystalline form [1]: transient form that converts back to Form A

CNCc1cc(Oc2ccc3c(ccn3C(=O)Nc3cc(C(F)(F)F)n(C)n3)c2)ncn1 [[^14C] N-(1-methyl-5-(trifluoromethyl)-1H-pyrazol-3-yl)-5-(6-((methylamino)methyl)pyrimidin-4-yloxy)-1H-indole-1-carboxamide]
Viability at 6 h (human hepatocytes): 25% | Viability at 6 h (monkey hepatocytes): 42% | Viability at 6 h (rabbit hepatocytes): 8% | Viability at 6 h (rat hepatocytes): 22% | viability of the hepatocytes after 6 hours [2]: 8-42% | chemical stability in the incubation media [3]: confirmed the stability of the compound
